For series [1], the system named is BaF3. As to the kind of experiment: cells. Conditions: Mus musculus, BaF3, 72 h.
For series [2], the target named is T1, Epidermal growth factor receptor (Homo sapiens, UniProt P00533, L858R/T790M). Description: Inhibition of human GST-tagged EGFR L858R/T790M mutant expressed in Sf9 cells assessed as substrate phosphorylation using TK-peptide as substrate incubated for 20 mins by HTRF assay. Background: TR-FRET usually uses a lanthanide donor and a delayed reading to cut background.
T1 sequence (P00533 25-1210 T790M/L858R limits assumed): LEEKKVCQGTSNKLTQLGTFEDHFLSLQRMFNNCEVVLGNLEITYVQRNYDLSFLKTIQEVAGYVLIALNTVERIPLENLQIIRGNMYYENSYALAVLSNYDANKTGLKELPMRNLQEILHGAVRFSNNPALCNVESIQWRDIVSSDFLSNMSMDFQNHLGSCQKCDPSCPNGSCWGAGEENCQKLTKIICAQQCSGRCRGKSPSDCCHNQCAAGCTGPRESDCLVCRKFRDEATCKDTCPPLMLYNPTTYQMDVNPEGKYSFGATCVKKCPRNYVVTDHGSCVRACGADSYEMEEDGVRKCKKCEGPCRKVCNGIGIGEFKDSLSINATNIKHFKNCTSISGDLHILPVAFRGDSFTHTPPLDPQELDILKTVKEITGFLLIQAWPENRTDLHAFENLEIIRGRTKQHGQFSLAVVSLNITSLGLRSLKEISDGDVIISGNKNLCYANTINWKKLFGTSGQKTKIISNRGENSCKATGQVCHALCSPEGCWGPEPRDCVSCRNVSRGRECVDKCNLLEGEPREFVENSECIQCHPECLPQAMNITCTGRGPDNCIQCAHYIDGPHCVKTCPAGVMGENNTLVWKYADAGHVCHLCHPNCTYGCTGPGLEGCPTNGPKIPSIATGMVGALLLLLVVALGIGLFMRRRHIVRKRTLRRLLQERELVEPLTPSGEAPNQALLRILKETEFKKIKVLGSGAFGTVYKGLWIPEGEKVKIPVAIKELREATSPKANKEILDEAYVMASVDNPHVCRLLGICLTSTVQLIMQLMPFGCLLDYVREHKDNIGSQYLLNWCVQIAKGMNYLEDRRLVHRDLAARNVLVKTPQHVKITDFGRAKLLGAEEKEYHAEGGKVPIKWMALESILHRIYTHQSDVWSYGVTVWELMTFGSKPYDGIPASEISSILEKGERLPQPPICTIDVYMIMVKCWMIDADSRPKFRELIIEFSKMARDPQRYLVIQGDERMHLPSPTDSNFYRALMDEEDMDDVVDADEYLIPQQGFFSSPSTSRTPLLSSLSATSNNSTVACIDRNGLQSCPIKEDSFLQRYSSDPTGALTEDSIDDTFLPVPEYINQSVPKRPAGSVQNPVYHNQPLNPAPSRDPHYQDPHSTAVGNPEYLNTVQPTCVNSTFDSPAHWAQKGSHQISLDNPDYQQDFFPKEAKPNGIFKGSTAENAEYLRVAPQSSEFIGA

Series [3] has as its target T2, Epidermal growth factor receptor (Homo sapiens, UniProt P00533, C797S/L858R/T790M). As to the kind of experiment: Inhibition of human GST-tagged EGFR L858R/T790M/C797S mutant expressed in Sf9 cells assessed as substrate phosphorylation using TK-peptide as substrate incubated for 10 mins by HTRF assay.
Series [4] addresses T3, Epidermal growth factor receptor (Homo sapiens, UniProt P00533). Description: Inhibition of human wild type GST-tagged EGFR expressed in Sf9 cells assessed as substrate phosphorylation using TK-peptide as substrate incubated for 25 mins by HTRF assay.
The target in series [5] is T4, Epidermal growth factor receptor (Homo sapiens, UniProt P00533, C797S/EX19DEL/T790M). As to the kind of experiment: Inhibition of human EGFR del19/T790M/C797S mutant using ATP-labelled peptide substrate by HTRF assay.
T4 sequence (P00533 whole entry, looked up, stated change not applied): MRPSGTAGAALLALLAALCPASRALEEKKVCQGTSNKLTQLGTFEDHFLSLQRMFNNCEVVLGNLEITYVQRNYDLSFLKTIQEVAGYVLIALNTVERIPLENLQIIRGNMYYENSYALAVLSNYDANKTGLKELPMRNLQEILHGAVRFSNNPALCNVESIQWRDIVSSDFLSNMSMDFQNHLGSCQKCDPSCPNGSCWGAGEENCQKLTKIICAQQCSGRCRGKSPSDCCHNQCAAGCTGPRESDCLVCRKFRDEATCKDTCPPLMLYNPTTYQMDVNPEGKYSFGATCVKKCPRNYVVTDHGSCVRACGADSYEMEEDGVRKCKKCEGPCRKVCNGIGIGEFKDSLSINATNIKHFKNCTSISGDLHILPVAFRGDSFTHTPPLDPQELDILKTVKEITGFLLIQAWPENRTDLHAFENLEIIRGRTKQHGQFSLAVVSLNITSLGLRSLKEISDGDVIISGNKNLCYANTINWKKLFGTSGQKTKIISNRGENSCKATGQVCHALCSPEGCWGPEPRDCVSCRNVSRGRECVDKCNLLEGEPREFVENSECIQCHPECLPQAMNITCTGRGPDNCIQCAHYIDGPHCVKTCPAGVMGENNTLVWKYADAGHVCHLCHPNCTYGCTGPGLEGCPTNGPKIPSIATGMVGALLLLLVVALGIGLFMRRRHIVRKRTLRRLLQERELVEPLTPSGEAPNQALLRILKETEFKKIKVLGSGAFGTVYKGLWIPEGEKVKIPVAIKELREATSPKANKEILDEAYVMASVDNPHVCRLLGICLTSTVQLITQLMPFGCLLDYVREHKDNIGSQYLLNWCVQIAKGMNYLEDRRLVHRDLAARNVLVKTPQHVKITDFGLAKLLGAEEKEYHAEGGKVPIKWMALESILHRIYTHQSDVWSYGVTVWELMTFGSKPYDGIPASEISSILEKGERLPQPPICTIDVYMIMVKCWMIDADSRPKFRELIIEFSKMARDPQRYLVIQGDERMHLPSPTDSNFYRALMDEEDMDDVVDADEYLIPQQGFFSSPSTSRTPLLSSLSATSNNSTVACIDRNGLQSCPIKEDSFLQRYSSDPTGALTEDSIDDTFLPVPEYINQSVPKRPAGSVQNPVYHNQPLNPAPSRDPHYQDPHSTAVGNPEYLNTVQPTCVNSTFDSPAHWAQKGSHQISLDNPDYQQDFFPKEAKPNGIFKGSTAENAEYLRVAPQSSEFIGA
The target of series [6] is T4, Epidermal growth factor receptor. As to the kind of experiment: Inhibition of human EGFR del19/T790M/C797S mutant assessed as enzyme remaining activity using poly-Glu-Tyr peptide substrate incubated for 2 hrs in presence of [gamma-33P]ATP by radiometric kinase assay.
The test system of series [7] is BaF3. Description: cells. The note with it: Mus musculus.
Series [8] has as its system BaF3. As to the kind of experiment: cells. The note with it: Mus musculus. The source holds these as a separate data set.
Series [9] concerns BaF3. Description: Cytotoxicity against mouse BaF3 cells expressing human EGFR C797S/del19 mutant assessed as inhibition of in cell viability measured after 72 hrs by CellTiter-Glo assay. The class given is functional, cell-based. Conditions: BaF3, 72 h. (Cellular ATP, detected with luciferase, serves as a proxy for viable cell number.)
Series [10] concerns BaF3. As to the kind of experiment: Cytotoxicity against mouse BaF3 cells expressing human EGFR C797S/T790M/del19 mutant assessed as inhibition of in cell viability measured after 72 hrs by CellTiter-Glo assay. The note with it: BaF3, 72 h. It is filed as functional, cell-based.
Series [11] relates to BaF3. Description: Antiproliferative activity against mouse BaF3 cells harboring EGFR del19/T790M/C797S triple mutant assessed as inhibition of cell proliferation by celltiter-Glo assay. The class given is functional, cell-based.
The target in series [12] is T4, Epidermal growth factor receptor. Description: Inhibition of EGFR del19/T790M/C797S triple mutant (unknown origin) phosphorylation expressed in mouse BaF3 cells by fluorescence based microplate reader analysis. The class given is cell-based.
Series [13] addresses T1, Epidermal growth factor receptor. Description: Inhibition of EGFR L858R/T790M mutant (unknown origin).
The target in series [14] is T3, Epidermal growth factor receptor. As to the kind of experiment: Inhibition of wild type EGFR (unknown origin).
Series [15] has as its target T2, Epidermal growth factor receptor. Description: Inhibition of EGFR L858R/T790M/C797S mutant (unknown origin).
For series [16], the system named is A549. As to the kind of experiment: Antiproliferative activity against human A549 assessed as inhibition of cell proliferation. The class given is functional, cell-based.
In series [17] the test system is PC-9. As to the kind of experiment: Antiproliferative activity against human PC-9 cells harboring EGFR L858R/T790M/C797S mutant assessed as inhibition of cell proliferation. It is filed as functional, cell-based.
Series [18] has as its system PC-9. As to the kind of experiment: Antiproliferative activity against human PC-9 cells harboring EGFR del19/T790M/C797S mutant assessed as inhibition of cell proliferation. The class given is functional, cell-based.
The subject of series [19] is PC-9. Description: Antiproliferative activity against human PC-9 cells assessed as inhibition of cell proliferation. The class given is functional, cell-based.
Series [20] can be described thus: Half life in C57Bl/6 mouse at 3 mg/kg, iv and measured upto 8 hrs by LC-MS/MS analysis. It is filed as ADME, organism-based. The note with it: in vivo.
Series [21] can be described thus: AUClast in C57Bl/6 mouse at 3 mg/kg, iv and measured upto 8 hrs by LC-MS/MS analysis. The arrangement: dose 3 mg/kg, time < 8 hrs, route iv. It is filed as ADME, organism-based. The note with it: in vivo.
A short description of series [22]: Oral bioavailability in C57Bl/6 mouse plasma at 20 mg/kg and measured upto 8 hrs by LC-MS/MS analysis. The class given is ADME, organism-based.
Series [23] in a line: Cmax in C57Bl/6 mouse plasma at 20 mg/kg, po and measured upto 8 hrs by LC-MS/MS analysis. It is filed as ADME, organism-based. The arrangement: dose 20 mg/kg, time < 8 hrs, route po.

T2 sequence (P00533 25-1210 T790M/C797S/L858R limits assumed): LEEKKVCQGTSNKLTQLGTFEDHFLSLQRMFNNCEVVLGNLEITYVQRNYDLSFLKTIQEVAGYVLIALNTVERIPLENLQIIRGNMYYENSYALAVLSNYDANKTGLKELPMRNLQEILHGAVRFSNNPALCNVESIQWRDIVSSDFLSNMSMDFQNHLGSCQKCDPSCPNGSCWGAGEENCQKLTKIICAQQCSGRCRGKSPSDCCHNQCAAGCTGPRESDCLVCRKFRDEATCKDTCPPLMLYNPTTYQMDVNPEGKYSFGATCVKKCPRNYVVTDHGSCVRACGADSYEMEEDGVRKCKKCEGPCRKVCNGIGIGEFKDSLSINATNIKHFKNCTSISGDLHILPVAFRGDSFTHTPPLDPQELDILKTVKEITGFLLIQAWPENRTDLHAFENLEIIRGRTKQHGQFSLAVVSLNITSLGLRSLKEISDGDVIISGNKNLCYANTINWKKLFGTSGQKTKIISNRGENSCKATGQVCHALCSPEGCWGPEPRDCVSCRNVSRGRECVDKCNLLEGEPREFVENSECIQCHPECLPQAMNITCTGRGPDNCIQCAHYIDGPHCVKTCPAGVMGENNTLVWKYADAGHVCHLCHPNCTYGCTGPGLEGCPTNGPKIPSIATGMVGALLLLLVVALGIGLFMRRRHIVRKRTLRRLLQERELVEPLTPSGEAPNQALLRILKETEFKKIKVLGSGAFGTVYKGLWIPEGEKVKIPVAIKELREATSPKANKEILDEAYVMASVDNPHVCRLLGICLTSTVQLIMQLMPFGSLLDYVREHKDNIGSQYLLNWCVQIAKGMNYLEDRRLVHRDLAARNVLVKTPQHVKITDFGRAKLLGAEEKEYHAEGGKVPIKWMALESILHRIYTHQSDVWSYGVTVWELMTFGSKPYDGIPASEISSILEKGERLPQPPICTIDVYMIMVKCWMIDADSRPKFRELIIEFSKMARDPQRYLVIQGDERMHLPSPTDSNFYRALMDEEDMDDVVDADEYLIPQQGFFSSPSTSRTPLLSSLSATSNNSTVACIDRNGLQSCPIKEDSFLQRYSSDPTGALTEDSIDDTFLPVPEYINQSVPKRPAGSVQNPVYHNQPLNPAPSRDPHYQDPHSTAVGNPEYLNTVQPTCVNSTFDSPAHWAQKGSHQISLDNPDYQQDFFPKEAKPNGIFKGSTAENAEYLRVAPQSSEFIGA
T3 sequence (P00533 whole entry): as the sequence (P00533 whole entry, looked up, stated change not applied) above

For the compound `O=C(Nc1nccs1)C(c1ccccc1)N1Cc2ccc(-c3ccc4[nH]ccc4c3)cc2C1=O` (centres undefined), the IC50 in series [1] was determined as 900 nM.
For the compound `CCC(=O)Nc1cccc(-c2c(-c3ccc(N4CCN(C)CC4)cc3)[nH]c3ncnc(OC(C)C)c23)c1`, the IC50 in series [2] is 0.1 nM; in [3], 8.6 nM; in series [4] it was 0.1 nM.
As to `COc1cc(N2CCC(N3CCN(CCO)CC3)CC2)ccc1Nc1ncc(Cl)c(Nc2ccccc2NS(C)(=O)=O)n1`, in [5], it took 0.8 nM to reach half-maximal inhibition (IC50).
Consider `Oc1ccccc1-c1nc(NCc2cccnc2)c2ccccc2n1`, for which the IC50 in series [6] stood at 149 nM.
In the case of `CC(=O)N[C@H]1CC[C@@H](N2C(=O)N(c3ccccc3Cl)Cc3cnc(Nc4ccc(N5CCN(C)CC5)c(C)c4)nc32)CC1`, the 50% inhibitory concentration (IC50) in series [7] came to 290 nM; in [8], 316 nM.
For `COc1cc(N2CCC(N3CCN(C)CC3)CC2)ccc1Nc1ncnc(Nc2ccccc2S(=O)(=O)C(C)C)n1` [ASP-3026], the IC50 was found to be 324 nM in [9] and 1510 nM in series [10].
For the compound `Cc1cc(Nc2ncc(Cl)c(Nc3ccccc3S(=O)(=O)C(C)C)n2)c(OC(C)C)cc1C1CCNCC1` [CERITINIB], the IC50 in series [10] was 780 nM.
Regarding `COC(=O)c1ccc(O)c(-c2nc(NCc3cccnc3)c3ccccc3n2)c1`, in series [6], the IC50 came to 46 nM.
Regarding `CCCCOc1ncnc2[nH]c(-c3ccc(N4CCN(C)CC4)cc3)c(-c3cccc(NC(=O)CC)c3)c12`, the values for the IC50 in [2], in series [3] and in [4] were < 0.1 nM, 9.4 nM and < 0.1 nM, respectively.
Take `COc1cc(N2CCC(N(C)C)CC2)ccc1Nc1ncc(Cl)c(Nc2ccccc2P(C)(C)=O)n1`: the results for the IC50 in series [9] and in [10] were 28.4 nM and 59.1 nM, respectively.
For the compound `COc1cc(N2CCC(N3CCN(C)CC3)CC2)ccc1Nc1ncc(Cl)c(Nc2ccccc2P(C)(C)=O)n1` [BRIGATINIB], the IC50 in series [9] amounted to 39.9 nM.
Turning to `Cc1cc(Nc2ncc(Cl)c(Nc3ccccc3P(C)(C)=O)n2)ccc1N1CCC2(CC1)CN(C)C2`, the concentration for half-maximal inhibition (IC50) in series [11] and in series [12] was < 100 nM each time.
As for `CCC(=O)Nc1cccc(-c2c(-c3ccc(N4CCN(C)CC4)cc3)[nH]c3ncn(C4CCCCC4)c(=O)c23)c1`, the IC50 came out at 0.4 nM in [2], 22 nM in series [3] and 0.4 nM in [4].
`C=C(C)c1cnc(Nc2ccc(N3CCC4(CCN(C)CC4)CC3)c(C)c2)nc1Nc1ccccc1P(C)(C)=O`: the IC50 in series [11] and in series [12] was < 100 nM in each case.
Regarding `COc1cc(N2CCC(N)CC2)ccc1Nc1ncc(Cl)c(-c2c[nH]c3ccccc23)n1`, the values for the IC50 in series [9] and in [10] were 74.4 nM and 132 nM, respectively.
Turning to `N#Cc1ccc(O)c(-c2nc(NCc3cccnc3)c3ccccc3n2)c1`, the IC50 in series [6] was 17.9 nM.
`CN1CCC2(CC1)CCN(c1ccc(Nc3ncc(Cl)c(Nc4ccccc4P(C)(C)=O)n3)cc1Br)CC2`: the IC50 in [11] and in series [12] was < 100 nM each time.
Turning to `OCCCCc1ccc(-c2nc(-c3ccc(F)cc3)c(-c3ccnc4c3CC(c3ccccc3)N4)[nH]2)cc1` (centres undefined), the IC50 was 8.39 nM in series [13], < 0.3 nM in series [14] and 8.83 nM in series [15].
For the compound `Oc1ccc(-c2nc(-c3ccc(F)cc3)c(-c3ccnc4c3CC(c3ccccc3)N4)[nH]2)cc1` (centres undefined), the IC50 in series [13] amounted to 916 nM; in series [14], 49.2 nM.
For `CCC(=O)Nc1cccc(-c2c(-c3ccccc3)[nH]c3ncnc(OC)c23)c1`, the IC50 in [2] came out at 176 nM; in series [4], 1200 nM.
As for `CCC(=O)Nc1cccc(-c2c(-c3ccc(N4CCN(C)CC4)cc3)[nH]c3ncnc(OCC(C)C)c23)c1`, the values for the IC50 in [2], in [3] and in series [4] were < 0.1 nM, 8.5 nM and 0.2 nM, respectively.
Consider `CSc1nc(-c2ccc(F)cc2)c(-c2ccnc(Nc3ccccc3)c2)[nH]1`, for which the IC50 in series [15] was > 149 nM.
With `COc1cc(N2CCC(N3CCN(C)CC3)CC2)ccc1Nc1ncc(Cl)c(Nc2ccccc2NS(C)(=O)=O)n1`, the IC50 in series [5] came to 0.2 nM.
With `N#Cc1ccc(O)c(-c2nc(NCc3cnccn3)c3ccccc3n2)c1`, in series [6], the IC50 stood at 17 nM.
Consider `OCCc1ccc(-c2nc(-c3ccc(F)cc3)c(-c3ccnc4c3CC(c3ccccc3)N4)[nH]2)cc1` (centres undefined), for which the IC50 in series [13] was 12.5 nM; in series [14], < 0.3 nM; in series [15], 7.64 nM.
As for `COc1ccc(-c2c3c4cc(OCCCN(C)C)c(OCCCN(C)C)cc4oc(=O)c3n3ccc4cc(O)c(OC)cc4c23)cc1O`, the IC50 in series [16] stood at 2860 nM; in series [17] it was 596 nM; in series [18] it was 740 nM; in series [19] it was 658 nM.
On to `O=C(Nc1nccs1)C(c1cc(F)ccc1O)N1Cc2ccc(-c3ccc(N4CCNCC4)cc3)cc2C1=O` (centres undefined), for which, in series [20], the half-life is 3 h. For the same compound, the AUC(0-t) at 8 h in [21] is 12100 ng·h/mL. This compound came in with a bioavailability in [22] of 3%. This compound displayed a Cmax in series [23] of 1100 nM.

Usually IC50 stands for the midpoint of a concentration-inhibition curve. Usually half-life stands for the time in which the quantity being followed falls by half. A low value points to fast loss. As a reminder, the AUC(0-t) is exposure summed from dosing to a finite time, without extrapolation to infinity. As a reminder, the bioavailability is dose-corrected exposure relative to a reference, in per cent. A low value points to little systemic uptake. Usually Cmax stands for the peak of the concentration-time curve.

These data come from ChEMBL document CHEMBL5214888, “The new opportunities in medicinal chemistry of fourth-generation EGFR inhibitors to overcome C797S mutation” (Eur J Med Chem, 2021).
